# In article PMC8251916 (Chemistry (Weinheim an Der Bergstrasse, Germany), 2021):
# Like-named read-outs stand apart in the source and are kept apart here.
# Columns and labels:
# MRC5 non-tumoral cells = assay: Cytotoxicity, alamarBlue assay, MRC5; format: cell-based, human; conditions: 72 h incubation, alamarBlue fluorescence, read-out: absolute EC50 MRC5
# Experimental: (§1) Doxorubicin, suramin and miltefosine were used as control compounds.[ ^6b , ^9 ] After incubation with varied concentrations of the compounds for 72 h, cell viability was measured using either an alamarBlue™ assay (for MRC5, HeLa and T. brucei) or MTT assay (for L. major). Absolute EC50 values and selectivity indexes were then calculated from dose‐response curves (Table 2 and S14). […]
# (§2) Cell culture reagents were purchased from Thermo Fisher Scientific (Waltham, MA, USA) and used as-is. The Dulbecco’s Minimal Essential Medium (DMEM) formulation contained either high glucose (4.5 g/L, catalogue number: 10569) or low glucose (1 g/L, catalogue number:
# (§3) 10567). RPMI-1640 was provided without sodium pyruvate and with L-glutamine (catalogue number: 11875). Phosphate Buffered Saline (PBS) contained NaCl (9 g/L), KH2PO4 (144 mg/L) and Na2HPO4-7.H2O (795 mg/L, catalogue number: 10010049). TrypLE Express™ was provided with EDTA (458 mg/L) and without Phenol Red (catalogue number: 12604021).
# (§4) MRC-5 cells (human lung fibroblasts) were grown in monolayer (37 °C, 5 % CO2 and 100 % humidity) in DMEM medium (1 g/L glucose), supplemented with 10% heat-inactivated Fetal Bovine Serum (hiFBS), 2 mM L-glutamine, 100 U / mL penicillin and […]
# (§5) streptomycin. […]
# (§6) Cells were cultured according to ATCC recommendations and were used for the experiments while in the exponential growth phase. […]
# (§7) Cytotoxicity was measured through the alamarBlue® assay (Thermo Fisher Scientific).[S6,S13] Briefly, 5×10^3 MRC-5 or HeLa cells were seeded in 96-wells plates (100 µL / well) in the presence of increasing concentrations of compound. After 72 hrs of incubation at 37 °C, 20 µL of alamarBlue® solution (110 ng / ml) was added to each well and cells were reincubated for 4 hrs at 37 °C. Then, 50 µL of 3 % SDS were added to each well. The plate was incubated at 37 °C for an extra hour and then analysed by fluorescence with an Infinite F200 plate reader (TECAN Austria, GmbH). The excitation wavelength was fixed at 550 nm and the emission wavelength at 590 nm. The results are expressed as the concentration of compound that reduces
# [1] = tested on: Febr1T (DNA, G4) GGGCAGGGGGTGATGGGGAGGAGCCAGGG; assay: FRET melting; conditions: 10 mM K+, 90 mM Li+; 10 mM Li cacodylate; 5 µM ligand, 200 nM DNA
# T. brucei = assay: Trypanocidal activity, alamarBlue assay; format: cell-based; conditions: for EC50: Trypanosoma brucei, 72 h incubation, alamarBlue fluorescence, read-out: absolute EC50 T. brucei
# Experimental: as §1, §2, §3, §4, §5, §6
# hiFBS. Parasites were split every other day and maintained in their experimental growth phase (below 2 million parasites per mL).
# as §7
# [2] = tested on: Febr1T-K+ (T. brucei G-quadruplex); assay: FRET melting assay, T. brucei G4; format: binding; conditions: 200 nM DNA, PIPER and 3 not reliable (spectral overlap)
# Experimental: (§8) With the library in hand, we began our investigation into G4 stabilization by conducting a Förster resonance energy transfer (FRET) melting assay to assess DNA stabilization using the procedure outlined by De Cian et. al. ^[13] […] The sequences examined (at 200 nM) were the human telomeric G4 in potassium buffer (F21T‐K^+, mixed parallel/hybrid G4) ^[14] and sodium buffer (F21T‐Na^+, antiparallel G4), ^[15] the c‐Myc promoter G‐quadruplex (FmycT‐K^+, parallel G4), ^[16] a polymorphic G4 found in T. brucei (FEBR1T‐K^+, a mixed G4 topology), ^[6b] and a hairpin duplex DNA sequence (F10T‐K^+). Together, these sequences represent targets for therapeutic intervention to treat parasitic infections, ^[6b] or cancer. ^[1b] The topology of each sequence was confirmed independently via circular dichroism (CD, Figure S1). […]
# (§9) FRET melting assays were performed to assess ligand affinity for duplex and G-quadruplex
# (§10) DNA. Briefly, oligonucleotides of interest were obtained labelled at the 5’ and 3’ ends with FAM (a fluorescence donor) and TAMRA (a fluorescence quencher), respectively. In the folded state, proximity of the donor and quencher result in no observed fluorescence from FAM, since energy is transferred non-radiatively to TAMRA by FRET. As the temperature is raised and the secondary structure denatures, the fluorophores move further apart and the fluorescence signal increases. From the resulting curve, the characteristic melting temperature (Tmax, also referred to as Tm) is defined as the temperature which corresponds to the maxima of the first derivative of the normalised fluorescence signal. The change in melting temperature (ΔTm) induced by the presence of a small molecule ligand provides an indication of the ligand’s ability to stabilise the DNA structure. FRET experiments were performed according to the […]
# (§11) procedure reported by De Cian and co-workers[S3] on a Stratagene MX3005P. The method consisted of holding at 25 °C for 5 min, before heating at 1 °C/min to 96 °C in 1 °C increments, […]
# [3] = tested on: F10T-K+ (hairpin duplex DNA); assay: FRET melting assay, hairpin duplex DNA; format: binding; conditions: 200 nM DNA, PIPER and 3 not reliable (spectral overlap)
# Experimental: as §8, §9, §10, §11
# [4] = tested on: FmycT-K+ (c-Myc promoter G-quadruplex, parallel); assay: FRET melting assay, c-Myc promoter G4; format: binding; conditions: 200 nM DNA, PIPER and 3 not reliable (spectral overlap)
# Experimental: as §8, §9, §10, §11
# [5] = tested on: F21T-Na+ (human telomeric G-quadruplex, antiparallel); assay: FRET melting assay, human telomeric G4 in sodium buffer; format: binding; conditions: 200 nM DNA, PIPER and 3 not reliable (spectral overlap)
# Experimental: as §8, §9, §10, §11
# [6] = 5 μM ligand, 10 mM KCl, 90 mM LiCl, 10 mM Li cacodylate
# [7] = 5 μM ligand, 1 mM KCl, 99 mM LiCl, 10 mM Li cacodylate
# [8] = 5 μM ligand, 100 mM NaCl, 10 mM Li cacodylate
Compound,"EC50 (MRC5 non-tumoral cells; Homo sapiens, MRC5, 72 h) [nM]",ΔTm [1] [°C],EC50 (T. brucei) [nM],ΔTm Febr1T-K+ ([2]; 1 µM ligand) [°C],"ΔTm Febr1T-K+ [2, 6] [°C]",ΔTm Febr1T-K+ ([2]; 10 µM ligand) [°C],ΔTm F10T-K+ ([3]; 1 µM ligand) [°C],"ΔTm F10T-K+ [3, 6] [°C]",ΔTm F10T-K+ ([3]; 10 µM ligand) [°C],EC50 (MRC5 non-tumoral cells) [nM],ΔTm FmycT-K+ ([4]; 1 µM ligand) [°C],"ΔTm FmycT-K+ [4, 7] [°C]",ΔTm FmycT-K+ ([4]; 10 µM ligand) [°C],ΔTm F21T-Na+ ([5]; 1 µM ligand) [°C],"ΔTm F21T-Na+ [5, 8] [°C]",ΔTm F21T-Na+ ([5]; 10 µM ligand) [°C],SI (MRC5/T. brucei) (T. brucei; selectivity index from EC50 values)
CN1CCN(CCCN2C(=O)c3ccc4c5c(ccc(c35)C2=O)C(=O)N(CCCN2CCN(C)CC2)C4=O)CC1 [Compound 1],3900 ± 500,9±1,610 ± 300,7 ± 3,9±1,11 ± 3,0 ± 1,1±1,3 ± 1,–,–,–,–,–,–,–,–
CN1CCN(CCCN2C(=O)c3ccc4c5ccc6c7c(ccc(c8ccc(c3c48)C2=O)c75)C(=O)N(CCCN2CCN(C)CC2)C6=O)CC1 [Compound 3],2000,–,27 ± 10,2 ± 1,33±1,39 ± 1,1 ± 1,6±2,13 ± 2,2100 ± 600,24 ± 1,37±2,> 40,18 ± 2,35±4,> 40,78
CN1CCN(CCCN2C(=O)c3ccc(Oc4ccc(C(C)(C)c5ccc(Oc6ccc7c(c6)C(=O)N(CCCN6CCN(C)CC6)C7=O)cc5)cc4)cc3C2=O)CC1 [Compound 9],88000 ± 10000,−4±1,33000 ± 24000,–,−4±1,-3 ± 1,–,0±1,–,–,–,−1±2,10 ± 3,–,−4±1,6 ± 4,–
CN1CCN(CCCNC(=O)c2ccc(Oc3ccc(C(C)(C)c4ccc(Oc5ccc(C(=O)NCCCN6CCN(C)CC6)c(C(=O)NCCCN6CCN(C)CC6)c5)cc4)cc3)cc2C(=O)NCCCN2CCN(C)CC2)CC1 [Compound 11],59000 ± 37000,6±1,2800 ± 2000,1 ± 1,6±1,13 ± 1,–,0±1,1 ± 1,–,-3 ± 1,5±1,10 ± 2,-4 ± 1,1±1,9 ± 2,–
